From patent US10669272B2, “Substituted naphthyridinone compounds useful as T cell activators” (BRISTOL-MYERS SQUIBB COMPANY, priority 2018, dated 2020)
Read-outs that look alike come from different tables or passages of the source.

Key:
human DGKζ = target: T1, human DGKζ (Homo sapiens, UniProt Q13574); assay: DGKζ LIPGLO assay (extruded liposome substrate), in vitro DGK inhibition; type: biochemical; conditions: read-out: DGKz LIPGLO IC50
T1 construct: TVMV protease cleavage site (C); Hexa-His (C); made in house; host or cells: Sf9 insect cells (baculovirus, Bac-to-Bac)
T1 sequence (Q13574 with tags, fused parts or gaps isoform Q13574-4): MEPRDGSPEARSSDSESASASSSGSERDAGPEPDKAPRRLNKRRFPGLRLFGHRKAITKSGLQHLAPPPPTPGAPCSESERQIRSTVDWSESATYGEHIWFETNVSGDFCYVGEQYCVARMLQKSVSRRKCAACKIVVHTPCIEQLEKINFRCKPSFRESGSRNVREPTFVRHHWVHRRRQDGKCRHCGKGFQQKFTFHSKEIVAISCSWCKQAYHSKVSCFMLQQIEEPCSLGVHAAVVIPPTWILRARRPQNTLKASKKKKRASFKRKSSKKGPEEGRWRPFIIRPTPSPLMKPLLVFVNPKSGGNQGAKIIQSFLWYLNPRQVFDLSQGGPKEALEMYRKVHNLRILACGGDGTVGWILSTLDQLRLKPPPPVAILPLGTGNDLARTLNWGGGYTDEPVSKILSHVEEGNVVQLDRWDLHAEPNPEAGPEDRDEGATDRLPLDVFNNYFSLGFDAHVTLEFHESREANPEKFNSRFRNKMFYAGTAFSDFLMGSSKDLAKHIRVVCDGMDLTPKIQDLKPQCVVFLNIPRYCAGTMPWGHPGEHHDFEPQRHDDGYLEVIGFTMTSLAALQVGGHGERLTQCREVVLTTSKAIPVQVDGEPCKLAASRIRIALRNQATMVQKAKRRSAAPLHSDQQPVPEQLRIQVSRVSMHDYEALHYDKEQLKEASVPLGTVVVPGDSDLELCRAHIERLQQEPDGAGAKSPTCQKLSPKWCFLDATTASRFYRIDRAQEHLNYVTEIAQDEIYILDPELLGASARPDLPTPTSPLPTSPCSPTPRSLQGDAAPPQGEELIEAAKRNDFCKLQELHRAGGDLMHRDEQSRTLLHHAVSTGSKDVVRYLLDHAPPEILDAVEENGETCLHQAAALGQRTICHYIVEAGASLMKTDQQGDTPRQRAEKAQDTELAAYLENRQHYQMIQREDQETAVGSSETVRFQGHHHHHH

human DGKα = target: T2, human DGKα (Homo sapiens, UniProt P23743); assay: DGKα LIPGLO assay (extruded liposome substrate), in vitro DGK inhibition; type: biochemical; conditions: read-out: DGKa LIPGLO IC50
T2 construct: TVMV protease cleavage site (C); Hexa-His (C); made in house; host or cells: Sf9 insect cells (baculovirus, Bac-to-Bac)
T2 sequence (P23743 with tags, fused parts or gaps): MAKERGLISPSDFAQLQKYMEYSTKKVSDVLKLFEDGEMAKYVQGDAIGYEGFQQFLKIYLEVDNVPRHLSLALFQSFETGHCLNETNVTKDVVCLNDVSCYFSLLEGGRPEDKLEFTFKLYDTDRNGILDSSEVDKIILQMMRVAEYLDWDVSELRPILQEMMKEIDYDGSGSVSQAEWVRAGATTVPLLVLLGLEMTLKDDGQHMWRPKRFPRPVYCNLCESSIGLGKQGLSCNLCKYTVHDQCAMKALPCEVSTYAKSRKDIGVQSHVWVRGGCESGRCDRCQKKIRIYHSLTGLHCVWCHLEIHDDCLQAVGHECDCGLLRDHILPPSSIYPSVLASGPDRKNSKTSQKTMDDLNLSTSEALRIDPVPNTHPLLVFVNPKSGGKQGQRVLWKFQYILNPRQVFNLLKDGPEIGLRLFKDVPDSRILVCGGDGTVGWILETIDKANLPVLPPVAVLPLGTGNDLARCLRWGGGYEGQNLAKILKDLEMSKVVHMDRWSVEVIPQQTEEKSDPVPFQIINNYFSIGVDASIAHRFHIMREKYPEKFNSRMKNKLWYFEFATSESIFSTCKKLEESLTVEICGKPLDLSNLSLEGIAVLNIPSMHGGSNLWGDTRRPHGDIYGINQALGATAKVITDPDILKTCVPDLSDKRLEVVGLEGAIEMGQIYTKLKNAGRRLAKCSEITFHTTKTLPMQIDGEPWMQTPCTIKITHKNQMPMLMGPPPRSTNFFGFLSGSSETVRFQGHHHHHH

Human venous whole blood = assay: Human whole blood IFN-γ assay; type: cell-based; conditions: human whole blood, read-out: INFg Whole Blood Normalized Agonist EC50;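 also: blood from healthy donors exposed to compound for 1 h before stimulation with anti-CD3 and anti-CD28 at 1 µg/mL each, IFN-γ quantified in supernatant by AlphaLISA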
[1] = Homo sapiens, 24 h, normalized to 3 μM reference compound with anti-CD3 plus anti-CD28 as 100% activation
[2] = anti-CD3 plus anti-CD28, 24 hours, 3 μM reference compound = 100% activation
[3] = normalized to 3 μM reference compound with anti-CD3 plus anti-CD28 as 100% activation
[4] = Homo sapiens, 24 h, anti-CD3 plus anti-CD28, 24 hours, 3 μM reference compound = 100% activation

Row | IC50 (human DGKζ; liposome (LIPGLO) assay) [µM] | IC50 (human DGKα; liposome (LIPGLO) assay) [µM] | IC50 (human DGKζ; DGKζ liposome (LIPGLO) assay) [µM] | IC50 (human DGKα; DGKα liposome (LIPGLO) assay) [µM] | Compound | EC50 (Human venous whole blood; [1]) [µM] | EC50 (Human venous whole blood; [2]) [µM] | EC50 (Human venous whole blood; [3]) [µM] | EC50 (Human venous whole blood; [4]) [µM]
1 | 2 | 13 | – | – | Cc1cccc(C(c2cccc(F)c2)N2C[C@H](C)N(c3cc(=O)n(C)c4ccc(C#N)nc34)C[C@H]2C)n1 (single isomer, unassigned) [Example 470] | 0.37 | – | – | –
2 | – | – | 6 | 22 | C[C@@H]1CN(c2c(C#N)c(=O)n(C)c3ccc(C#N)nc23)[C@@H](C)CN1C(c1ccccc1)c1ccc(Cl)cc1 (stereo partly drawn) [Example 834] | – | 3.6 | – | –
3 | 1.6 | 0.18 | – | – | [2H]C(CC)(c1ccc(F)cc1)N1C[C@H](C)N(c2cc(=O)n(C)c3ccc(C#N)nc23)C[C@H]1C (single isomer, unassigned) [Example 575] | – | – | 0.36 | –
4 | – | – | 0.58 | 0.67 | C[C@@H]1CN(c2cc(=O)n(C)c3ccc(C#N)nc23)[C@@H](C)CN1C(c1ccc(F)cc1)c1nc(N2CCOCC2)no1 (stereo partly drawn) [Example 749] | – | 1.2 | – | –
5 | 2.5 | 0.81 | – | – | C[C@@H]1CN(c2cc(=O)n(C)c3ccc(C#N)nc23)[C@@H](C)CN1C(c1ccc(F)cc1)c1c(F)cc(F)cc1F (single isomer, unassigned) [Example 692] | – | – | 0.68 | –
6 | 0.47 | 0.12 | – | – | CC(c1ccc(OC(F)(F)F)c(F)c1)N1C[C@H](C)N(c2cc(=O)n(C)c3ccc(C#N)nc23)C[C@H]1C (single isomer, unassigned) [Example 1204] | – | – | 0.54 | –
7 | 0.8 | 7.5 | – | – | C[C@@H]1CN(c2cc(=O)n(C)c3ccc(C#N)nc23)[C@@H](C)CN1C(c1ccc(F)cc1)c1ccnc(C(C)(C)C)n1 (single isomer, unassigned) [Example 408] | 0.8 | – | – | –
8 | 1 | 2.1 | – | – | CC(c1cccc(OC(F)(F)F)c1)N1C[C@H](C)N(c2cc(=O)n(C)c3ccc(C#N)nc23)C[C@H]1C (single isomer, unassigned) [Example 1268] | 5.2 | – | – | –
9 | – | – | 3.2 | 1.3 | C[C@@H]1CN(c2c(C#N)c(=O)n(C)c3ccc(C#N)nc23)CCN1Cc1ccc2ccccc2n1 [Example 992] | – | – | – | 5.8
10 | 0.59 | 0.69 | – | – | COc1ccc(C(c2ccc(F)cc2)N2C[C@H](C)N(c3cc(=O)n(C)c4ccc(C#N)nc34)C[C@H]2C)cc1 (stereo partly drawn) [Example 658] | – | – | 1.5 | –
11 | 0.58 | 8.9 | – | – | CCn1cc(F)c2c(CN3C[C@H](C)N(c4cc(=O)n(C)c5ccc(C#N)nc45)C[C@H]3C)cccc21 [Example 596] | 15 | – | – | –
12 | 0.034 | 0.0062 | – | – | CSCC(c1ccc(F)cc1)N1C[C@H](C)N(c2cc(=O)n(C)c3ccc(C#N)nc23)C[C@H]1C (single isomer, unassigned) [Example 1318] | 0.088 | – | – | –
13 | 0.11 | 3.5 | – | – | CC(c1cccc(OC(F)(F)F)c1)N1C[C@H](C)N(c2cc(=O)n(C)c3ccc(C#N)nc23)C[C@H]1C (single isomer, unassigned) [Example 1267] | 0.73 | – | – | –
14 | – | – | 8.5 | 6.3 | C[C@@H]1CN(c2cc(=O)n(C)c3ccc(C#N)nc23)[C@@H](C)CN1C(c1ccc(F)cc1)c1nnnn1C(C)(C)C (single isomer, unassigned) [Example 771] | – | 10 | – | –
15 | 0.047 | 0.044 | – | – | CC[C@H]1CN(C(c2ccc(F)cc2)c2cc(C3CC3)on2)[C@H](CC)CN1c1cc(=O)n(C)c2ccc(C#N)nc12 (single isomer, unassigned) [Example 1074] | 0.042 | – | – | –
16 | 2.1 | 47 | – | – | C[C@@H]1CN(c2cc(=O)n(C)c3ccc(C#N)nc23)[C@@H](C)CN1C(c1ccc(F)cc1)c1cnn2ccccc12 (single isomer, unassigned) [Example 699] | – | – | 0.98 | –

Row | IC50 (human DGKζ; liposome (LIPGLO) assay) [µM] | IC50 (human DGKα; liposome (LIPGLO) assay) [µM] | IC50 (human DGKζ; DGKζ liposome (LIPGLO) assay) [µM] | IC50 (human DGKα; DGKα liposome (LIPGLO) assay) [µM] | Compound | EC50 (Human venous whole blood; [1]) [µM] | EC50 (Human venous whole blood; [2]) [µM] | EC50 (Human venous whole blood; [3]) [µM] | EC50 (Human venous whole blood; [4]) [µM]
17 | 0.078 | 0.2 | – | – | CC[C@@H]1CN(c2cc(=O)n(C)c3ccc(C#N)nc23)[C@@H](C)CN1C(c1ccc(Cl)cc1)c1ccc(F)cn1 (stereo partly drawn) [Example 1111] | – | – | 0.31 | –
18 | 14 | 5.6 | – | – | CC(c1nc(C2CC2)no1)N1C[C@H](C)N(c2c(C#N)c(=O)n(C)c3ccc(C#N)nc23)C[C@H]1C (single isomer, unassigned) [Example 1307] | 20 | – | – | –
19 | 0.063 | 0.17 | – | – | CC[C@H]1CN(C(c2cccc(F)c2)c2ccc(F)cn2)[C@H](CC)CN1c1cc(=O)n(C)c2ccc(C#N)nc12 (single isomer, unassigned) [Example 1042] | – | – | 0.13 | –
20 | 7.6 | 1.9 | – | – | C[C@@H]1CN(c2cc(=O)n(C)c3ccc(C#N)nc23)[C@@H](C)CN1Cc1ccc(OC(F)(F)F)cc1Cl [Example 607] | 2 | – | – | –
21 | 3 | 1.2 | – | – | CC[C@H]1CN(C(c2cccc(F)c2)c2ccc(C)cn2)[C@H](C)CN1c1cc(=O)n(C)c2ccc(C#N)nc12 (single isomer, unassigned) [Example 1126] | – | – | 0.95 | –
22 | 2 | 3.1 | – | – | Cc1cc(C(C)N2C[C@H](C)N(c3cc(=O)n(C)c4ccc(C#N)nc34)C[C@H]2C)ccc1F (stereo partly drawn) [Example 1255] | 2.9 | – | – | –
23 | 0.33 | 18 | – | – | COC[C@@H]1CN(c2cc(=O)n(C)c3ccc(C#N)nc23)[C@@H](C)CN1Cc1cc(F)c(F)c(F)c1 [Example 1161] | 15 | – | – | –
24 | 1.5 | 5.2 | – | – | CC[C@@H]1CN(c2cc(=O)n(C)c3ccc(C#N)nc23)[C@@H](C)CN1Cc1ccc2c(c1)OC(F)(F)O2 [Example 1082] | 0.58 | – | – | –
25 | 0.043 | 0.036 | – | – | CC[C@H]1CN(C(c2cccc(F)c2)c2ccc(F)cn2)[C@H](CC)CN1c1cc(=O)n(C)c2ccc(C#N)nc12 (single isomer, unassigned) [Example 1041] | 0.23 | – | – | –
26 | – | – | 0.15 | 0.044 | C[C@@H]1CN(c2cc(=O)n(C)c3ccc(C#N)nc23)[C@@H](C)CN1C(c1ccc(F)cc1)c1cc(C(C)(C)C)on1 (single isomer, unassigned) [Example 732] | – | 0.44 | – | –
27 | – | – | 0.29 | 0.18 | Cc1cc(C(c2ccc(F)cc2)N2C[C@H](C)N(c3cc(=O)n(C)c4ccc(C#N)nc34)C[C@H]2C)no1 (single isomer, unassigned) [Example 734] | – | 1.4 | – | –
28 | 20 | 6.6 | – | – | C[C@@H]1CN(c2cc(=O)n(C)c3ccc(C#N)nc23)[C@@H](C)CN1C(c1ccc(F)cc1)c1cnsc1 (single isomer, unassigned) [Example 716] | – | – | 3.1 | –
29 | 0.24 | 0.071 | – | – | COc1cc(F)c(CN2C[C@H](C)N(c3cc(=O)n(C)c4ccc(C#N)nc34)C[C@H]2C)c(F)c1 [Example 1276] | 0.49 | – | – | –
30 | – | – | 4.1 | 7.7 | Cc1cccc(C(c2ccc(F)cc2)N2C[C@H](C)N(c3c(C#N)c(=O)n(C)c4ccc(C#N)nc34)C[C@H]2C)n1 (stereo partly drawn) [Example 815] | – | – | – | 1.9
31 | 0.047 | 0.079 | – | – | CC[C@H]1CN(C(c2ccc(F)cc2)c2nc(C3CC3)cs2)[C@H](CC)CN1c1cc(=O)n(C)c2ccc(C#N)nc12 (stereo partly drawn) [Example 1067] | 0.011 | – | – | –
32 | 1.8 | 110 | – | – | CC(c1cccc2ncccc12)N1C[C@H](C)N(c2cc(=O)n(C)c3ccc(C#N)nc23)C[C@H]1C (single isomer, unassigned) [Example 638] | 20 | – | – | –
